Structures are written as SMILES. Like-named read-outs stand apart in the source and are kept apart here. Some results are limits rather than exact numbers.

In one assay the target is CDC7 (Homo sapiens, UniProt O00311). The assay can be described thus: CDC7 inhibition, biochemical chemiluminescence assay (Kinase Glo, IC50 determination). The gist of the method:
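CDC7 enzyme preincubated with compound 10 min at ambient temperature, then ATP mix in Tris Base added; reaction 90 min at 24-27 °C. Remaining ATP quantified by Kinase Glo luminescence to give IC50.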

The target in assay [1] is PIM (PIM-1, PIM-2, and/or PIM-3). In words: PIM-1, PIM-2 and PIM-3 inhibition, biochemical chemiluminescence assays (Kinase Glo, IC50 determination). As to conditions: Table 1 activity class; PIM refers to PIM-1, PIM-2, and/or PIM-3; read-out: PIM IC50 (Activity B).
The next assay deals with CK2 (Homo sapiens, UniProt P68400). The assay can be described thus: CK2 inhibition, biochemical chemiluminescence holoenzyme assay (Kinase Glo, IC50 determination). As to conditions: Table 1 activity class; symbol given only if active; read-out: CK2 IC50 (Activity C). The gist of the method:
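Holoenzyme CK2 assay; compounds pre-incubated with substrate and enzyme, then reacted 150 min at 24-27° C. Remaining ATP measured as luminescence with Kinase Glo, and IC50 derived from the signal.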
(In general: In Kinase-Glo more light means more ATP remaining.)

The mark [2] stands for this setting: Table 1 activity class, symbol given only if active, read-out: CDC7 IC50 (Activity A).
[3] abbreviates: compounds in Table 1, read-out: CDC7 IC50 value.

CDC7, sequence (O00311 whole entry): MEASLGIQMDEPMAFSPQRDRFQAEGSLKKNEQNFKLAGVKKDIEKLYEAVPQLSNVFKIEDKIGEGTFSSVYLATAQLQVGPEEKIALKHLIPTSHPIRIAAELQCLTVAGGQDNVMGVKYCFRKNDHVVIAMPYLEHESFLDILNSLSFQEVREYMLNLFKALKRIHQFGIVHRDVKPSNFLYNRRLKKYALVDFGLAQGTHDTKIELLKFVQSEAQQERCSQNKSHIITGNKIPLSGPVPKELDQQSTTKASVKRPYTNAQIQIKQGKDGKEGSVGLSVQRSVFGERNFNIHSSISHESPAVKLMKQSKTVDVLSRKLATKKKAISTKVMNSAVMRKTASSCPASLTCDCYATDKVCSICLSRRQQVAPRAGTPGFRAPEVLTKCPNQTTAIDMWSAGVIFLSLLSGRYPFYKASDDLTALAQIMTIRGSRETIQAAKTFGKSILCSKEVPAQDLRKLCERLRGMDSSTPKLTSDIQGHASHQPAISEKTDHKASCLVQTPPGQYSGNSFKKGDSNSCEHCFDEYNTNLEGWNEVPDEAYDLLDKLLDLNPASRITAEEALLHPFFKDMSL
CDC7, sequence (Q9UBU7 whole entry partner): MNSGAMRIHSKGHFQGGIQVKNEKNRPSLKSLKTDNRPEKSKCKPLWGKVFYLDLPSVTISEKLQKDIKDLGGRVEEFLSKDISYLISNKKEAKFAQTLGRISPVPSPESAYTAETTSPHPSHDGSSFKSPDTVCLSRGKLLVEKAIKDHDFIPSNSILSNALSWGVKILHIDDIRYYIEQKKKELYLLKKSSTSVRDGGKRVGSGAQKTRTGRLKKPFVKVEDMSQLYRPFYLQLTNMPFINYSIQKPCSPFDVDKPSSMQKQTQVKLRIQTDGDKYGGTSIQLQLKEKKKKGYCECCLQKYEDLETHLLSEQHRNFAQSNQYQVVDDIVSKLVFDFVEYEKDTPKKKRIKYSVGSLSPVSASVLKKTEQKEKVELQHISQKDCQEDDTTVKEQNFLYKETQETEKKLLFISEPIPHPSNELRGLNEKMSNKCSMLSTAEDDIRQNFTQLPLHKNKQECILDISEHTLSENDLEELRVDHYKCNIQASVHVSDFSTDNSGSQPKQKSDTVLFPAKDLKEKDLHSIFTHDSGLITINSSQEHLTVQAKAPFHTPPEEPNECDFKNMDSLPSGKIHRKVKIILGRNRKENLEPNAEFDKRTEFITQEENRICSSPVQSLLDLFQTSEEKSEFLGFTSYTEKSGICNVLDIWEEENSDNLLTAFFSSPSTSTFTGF
CK2, sequence (P68400 whole entry): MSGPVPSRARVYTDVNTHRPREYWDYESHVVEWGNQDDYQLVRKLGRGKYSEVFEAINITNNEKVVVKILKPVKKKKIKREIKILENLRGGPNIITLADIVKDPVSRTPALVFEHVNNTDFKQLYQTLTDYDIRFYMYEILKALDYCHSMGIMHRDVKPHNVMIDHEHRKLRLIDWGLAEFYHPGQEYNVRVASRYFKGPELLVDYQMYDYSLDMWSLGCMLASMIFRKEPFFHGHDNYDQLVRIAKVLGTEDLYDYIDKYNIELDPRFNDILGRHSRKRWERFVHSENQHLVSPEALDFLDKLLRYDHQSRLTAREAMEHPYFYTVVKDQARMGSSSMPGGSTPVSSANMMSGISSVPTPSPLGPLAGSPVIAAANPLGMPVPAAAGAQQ
CK2, sequence (P67870 whole entry partner): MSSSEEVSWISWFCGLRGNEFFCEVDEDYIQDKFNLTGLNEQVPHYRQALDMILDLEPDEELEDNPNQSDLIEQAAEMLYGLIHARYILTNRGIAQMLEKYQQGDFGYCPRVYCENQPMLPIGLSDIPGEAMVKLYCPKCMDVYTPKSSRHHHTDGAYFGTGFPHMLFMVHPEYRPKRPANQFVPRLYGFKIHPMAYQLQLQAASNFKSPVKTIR

Consider `O=c1[nH]c(CN2C[C@@H]3C[C@H]2CN3)nc2c1oc1ccc(Br)cc12` [Compound 119, 8-bromo-2-[(1S,4S)-2,5-diazabicyclo[2.2.1]hept-2-ylmethyl][1]benzofuro[3,2-d]pyrimidin-4(3H)-one], for which the 50% inhibitory concentration (IC50) on CDC7 (CDC7 IC50 (Activity A), Table 1 activity class, symbol given only if active) was less than 10 µM; at CDC7 (CDC7 IC50 value, compounds in Table 1), less than 0.1 µM; in assay [1], less than 10 µM; on CK2, less than 10 µM.

For `CC(=O)Nc1ccc(-c2nc3c(oc4ccc(Br)cc43)c(=O)[nH]2)c(Cl)c1` [Compound 121, N-[4-(8-bromo-4-oxo-3,4-dihydro[1]benzofuro[3,2-d]pyrimidin-2-yl)-3-chlorophenyl]acetamide], the IC50 (on CDC7 (setting [2]); in assay [1]; on CK2) was less than 10 µM in each case.

For the compound `Cc1n[nH]c2ccc(-c3nc4c(oc5ccc(Br)cc54)c(=O)[nH]3)cc12` [Compound 123, 8-bromo-2-(3-methyl-1H-indazol-5-yl)[1]benzofuro[3,2-d]pyrimidin-4(3H)-one], the IC50 (on CDC7 (setting [2]); in assay [1]; at CK2) was less than 10 µM throughout.

Take `COc1ccc2oc3c(=O)[nH]c(-c4ccc([N+](=O)[O-])cc4Cl)nc3c2c1` [Compound 124, 2-(2-chloro-4-nitrophenyl)-8-(methyloxy)[1]benzofuro[3,2-d]pyrimidin-4(3H)-one]: the IC50 (on CDC7 (setting [2]); in assay [1]; at CK2) was less than 10 µM in each case.

`O=c1[nH]c(-c2cc([N+](=O)[O-])ccc2Cl)nc2c1oc1ccc(Br)cc12` [Compound 126, 8-bromo-2-(2-chloro-5-nitrophenyl)[1]benzofuro[3,2-d]pyrimidin-4(3H)-one]: the IC50 (at CDC7 (setting [2]); in assay [1]; at CK2) was less than 10 µM throughout.

Regarding `CN(C)CC(=O)Nc1ccc(-c2nc3c(oc4ccc(Br)cc43)c(=O)[nH]2)c(Cl)c1` [Compound 127, N-[4-(8-bromo-4-oxo-3,4-dihydro[1]benzofuro[3,2-d]pyrimidin-2-yl)-3-chlorophenyl]-N′2′,N′2′-dimethylglycinamide], the IC50 (on CDC7 (setting [2]); in assay [1]; at CK2) was less than 10 µM each time.

Turning to `CS(=O)(=O)c1ccc(-c2nc3c(oc4ccc(Br)cc43)c(=O)[nH]2)c(Cl)c1` [Compound 128, 8-bromo-2-[2-chloro-4-(methylsulfonyl)phenyl][1]benzofuro[3,2-d]pyrimidin-4(3H)-one], the IC50 at CDC7 (setting [2]) was less than 10 µM; on CDC7 (setting [3]) it was less than 0.1 µM; in assay [1], less than 10 µM; at CK2 it was less than 10 µM.

In the case of `CC(C)(CN1CCOCC1)NCc1nc2c(oc3ccc(Br)cc32)c(=O)[nH]1` [Compound 130, 8-bromo-2-{[(1,1-dimethyl-2-morpholin-4-ylethyl)amino]methyl}[1]benzofuro[3,2-d]pyrimidin-4(3H)-one], the IC50 (at CDC7 (setting [2]); in assay [1]; on CK2) was less than 10 µM each time.

Take `Nc1ccc(Cl)c(-c2nc3c(oc4ccc(Br)cc43)c(=O)[nH]2)c1` [Compound 134, 2-(5-amino-2-chlorophenyl)-8-bromo[1]benzofuro[3,2-d]pyrimidin-4(3H)-one]: the IC50 (at CDC7 (setting [2]); in assay [1]; at CK2) was less than 10 µM throughout.

For the compound `CN(C)CCC(=O)Nc1ccc(-c2nc3c(oc4ccc(Br)cc43)c(=O)[nH]2)c(Cl)c1` [Compound 135, N-[4-(8-bromo-4-oxo-3,4-dihydro[1]benzofuro[3,2-d]pyrimidin-2-yl)-3-chlorophenyl]-N′3′,N′3′-dimethyl-beta-alaninamide], the IC50 (at CDC7 (setting [2]); in assay [1]; on CK2) was less than 10 µM each time.

Consider `COc1ccc2oc3c(=O)[nH]c(-c4ccc(NCC5CCNCC5)cc4Cl)nc3c2c1` [Compound 138, 2-{2-chloro-4-[(piperidin-4-ylmethyl)amino]phenyl}-8-(methyloxy)[1]benzofuro[3,2-d]pyrimidin-4(3H)-one], for which the IC50 (at CDC7 (setting [2]); in assay [1]; at CK2) was less than 10 µM each time.

In the case of `O=C(Nc1ccc(-c2nc3c(oc4ccc(Br)cc43)c(=O)[nH]2)c(Cl)c1)C1CCCNC1` (stereo not shown) [Compound 140, N-[4-(8-bromo-4-oxo-3,4-dihydro[1]benzofuro[3,2-d]pyrimidin-2-yl)-3-chlorophenyl]piperidine-3-carboxamide], the IC50 (at CDC7 (setting [2]); in assay [1]; at CK2) was less than 10 µM each time.

For the compound `O=c1[nH]c(CN2CCNCC2)nc2c1oc1ccc(Br)cc12` [Compound 141, 8-bromo-2-(piperazin-1-ylmethyl)[1]benzofuro[3,2-d]pyrimidin-4(3H)-one], the IC50 (on CDC7 (setting [2]); in assay [1]; on CK2) was less than 10 µM throughout.

Turning to `O=C(Nc1ccc(-c2nc3c(oc4ccc(Br)cc43)c(=O)[nH]2)c(Cl)c1)c1ccncc1` [Compound 143, N-[4-(8-bromo-4-oxo-3,4-dihydro[1]benzofuro[3,2-d]pyrimidin-2-yl)-3-chlorophenyl]pyridine-4-carboxamide], the IC50 (on CDC7 (setting [2]); in assay [1]; on CK2) was less than 10 µM each time.

With `COc1ccc2oc3c(=O)[nH]c(-c4ccc(F)cc4Cl)nc3c2c1` [Compound 144, 2-(2-chloro-4-fluorophenyl)-8-(methyloxy)[1]benzofuro[3,2-d]pyrimidin-4(3H)-one], the IC50 (on CDC7 (setting [2]); in assay [1]; at CK2) was less than 10 µM throughout.

Regarding `O=c1[nH]c(N2CCOCC2)nc2c1oc1ccc(Br)cc12` [Compound 147, 8-bromo-2-morpholin-4-yl[1]benzofuro[3,2-d]pyrimidin-4(3H)-one], the 50% inhibitory concentration (IC50) at CDC7 (setting [2]) was less than 10 µM; at CDC7 (setting [3]), less than 0.1 µM; in assay [1], less than 10 µM; at CK2, less than 10 µM.

For `O=c1[nH]c(-c2cnccc2Cl)nc2c1oc1ccc(Br)cc12` [Compound 148, 8-bromo-2-(4-chloropyridin-3-yl)[1]benzofuro[3,2-d]pyrimidin-4(3H)-one], the IC50 (at CDC7 (setting [2]); in assay [1]; at CK2) was less than 10 µM each time.

With `CC(C)C(c1nc2c(oc3ccc(Br)cc32)c(=O)[nH]1)N1CCCC1` (stereo not shown) [Compound 153, 8-Bromo-2-(2-methyl-1-pyrrolidin-1-ylpropyl)[1]benzofuro[3,2-d]pyrimidin-4(3H)-one], the IC50 (on CDC7 (setting [2]); in assay [1]; at CK2) was less than 10 µM each time.

`O=c1[nH]c(-c2ccc(NCC3CCNC3)cc2Cl)nc2c1oc1ccc(Br)cc12` (stereo not shown) [Compound 154, 8-bromo-2-{2-chloro-4-[(pyrrolidin-3-ylmethyl)amino]phenyl}[1]benzofuro[3,2-d]pyrimidin-4(3H)-one]: the 50% inhibitory concentration (IC50) (at CDC7 (setting [2]); in assay [1]; at CK2) was less than 10 µM in each case.

For the compound `O=c1[nH]c(-c2ccc(NCCC3CCCNC3)cc2Cl)nc2c1oc1ccc(Br)cc12` (stereo not shown) [Compound 155, 8-bromo-2-{2-chloro-4-[(2-piperidin-3-ylethyl)amino]phenyl}[1]benzofuro[3,2-d]pyrimidin-4(3H)-one], the IC50 (on CDC7 (setting [2]); in assay [1]; on CK2) was less than 10 µM throughout.

Take `O=c1[nH]c(C2CCNCC2)nc2c1oc1ccc(Br)cc12` [Compound 157, 8-bromo-2-piperidin-4-yl[1]benzofuro[3,2-d]pyrimidin-4(3H)-one]: the IC50 was less than 10 µM at CDC7 (setting [2]), less than 0.1 µM at CDC7 (setting [3]), less than 10 µM in assay [1] and less than 10 µM on CK2.

Turning to `O=c1[nH]c(C2CCCNC2)nc2c1oc1ccc(Br)cc12` (stereo not shown) [Compound 158, 8-Bromo-2-piperidin-3-yl[1]benzofuro[3,2-d]pyrimidin-4(3H)-one], the IC50 at CDC7 (setting [2]) is less than 10 µM; at CDC7 (setting [3]), less than 0.1 µM; in assay [1], less than 10 µM; on CK2, less than 10 µM.

As for `CN(C)CCCC(=O)Nc1ccc(-c2nc3c(oc4ccc(Br)cc43)c(=O)[nH]2)c(Cl)c1` [Compound 160, N-[4-(8-bromo-4-oxo-3,4-dihydro[1]benzofuro[3,2-d]pyrimidin-2-yl)-3-chlorophenyl]-4-(dimethylamino)butanamide], the IC50 (at CDC7 (setting [2]); in assay [1]; at CK2) was less than 10 µM each time.

Consider `O=C(Nc1ccc(-c2nc3c(oc4ccc(Br)cc43)c(=O)[nH]2)c(Cl)c1)C1CCNCC1` [Compound 161, N-[4-(8-bromo-4-oxo-3,4-dihydro[1]benzofuro[3,2-d]pyrimidin-2-yl)-3-chlorophenyl]piperidine-4-carboxamide], for which the IC50 (at CDC7 (setting [2]); in assay [1]; on CK2) was less than 10 µM throughout.

In the case of `O=c1[nH]c(CNCCc2ccncc2)nc2c1oc1ccc(Br)cc12` [Compound 166, 8-bromo-2-{[(2-pyridin-4-ylethyl)amino]methyl}[1]benzofuro[3,2-d]pyrimidin-4(3H)-one], the IC50 on CDC7 (setting [2]) is less than 10 µM; on CDC7 (setting [3]) it was less than 0.1 µM; in assay [1] it was less than 10 µM; on CK2 it was less than 10 µM.

Regarding `O=c1[nH]c(C2CCCN2)nc2c1oc1ccc(Br)cc12` (stereo not shown) [Compound 169, 8-bromo-2-pyrrolidin-2-yl[1]benzofuro[3,2-d]pyrimidin-4(3H)-one], the IC50 on CDC7 (setting [2]) is less than 10 µM; on CDC7 (setting [3]) it was less than 0.1 µM; in assay [1], less than 10 µM; at CK2, less than 10 µM.

For orientation: IC50 means the concentration at which inhibition is half-maximal.
